Reference: ChEMBL document CHEMBL2062363, “Ligand-based design, in silico ADME-Tox filtering, synthesis and biological evaluation to discover new soluble 1,4-DHP-based CFTR activators” (Eur J Med Chem, 2012)

What was measured:
[1] = Potentiation of forskolin-induced CFTR deltaF508 mutant expressed in FRT cells co-expressing halide-sensitive YFP-H148Q/I152L by fluorescence quenching assay; assay type: cell-based, Homo sapiens
[2] = target: L-type voltage-dependent Ca2+ channel (Homo sapiens, UniProt O60840+Q01668+Q13698+Q13936); assay: Inhibition of L-type voltage-dependent Ca2+ channel at 1 uM
[3] = Induction of nitric oxide release in phosphate buffer at pH 7.4 at 10^-4 M after 1 hr by Griess reaction presence of L-cysteine; assay type: physicochemical; details: pH 7.4, 1 h, 100 µM

Structure (SMILES)	pEC50 for potentiation of CFTR deltaF508 (activation potency) [1]	inhibition at 1 µM [2]	Activity [3]
CCOC(=O)C1=C(C)NC(C)=C(C(=O)OCC)C1c1ccc([N+](=O)[O-])cc1	5.71	47.4%	
COCCOC(=O)C1=C(C)N=C(C)/C(=C(/O)OCCOC)C1/C=C/c1ccccc1OC (configuration not stated)	6.1	10.6%	
C=CCO/C(O)=C1\C(C)=NC(SCC)=C(C#N)C1c1ccc(Cl)cc1 (configuration not stated)	5.58	29.7%	
CCOC(=O)C1=C(C)NC(C)=C(C(=O)OCC)C1c1cccc(Oc2ccccc2)c1	6.59	43.2%	
C=CCOC(=O)C1=C(C)NC(C)=C(C(=O)OCC=C)C1/C=C/c1ccccc1OC	6.49	18%	
CCOC(=O)C1=C(C)NC(C)=C(C(=O)OCC)C1c1ccc(C(C)C)cc1	6.22	30.8%	
CC1=C(C(=O)OC(C)C)C(c2ccc(F)cc2)C(C(=O)OC(C)C)=C(C)N1	6.52	96.8%	
C=CCOC(=O)C1=C(C)NC(C)=C(C(=O)OCC=C)C1c1cccc([N+](=O)[O-])c1	6.92	100%	
C=CCOC(=O)C1=C(C)NC(C)=C(C(=O)OCC=C)C1c1ccc(OC)c(OC)c1	5.55	28.7%	
C=CCOC(=O)C1=C(C)NC(C)=C(C(=O)OCC=C)C1c1ccc(O)c(OCC)c1	6.46	63.6%	
C=CCOC(=O)C1=C(C)NC(C)=C(C(=O)OCC=C)C1c1ccc(C(C)C)cc1	6.6	64%	
C=CCOC(=O)C1=C(C)NC(C)=C(C(=O)OCC=C)C1c1ccc(C)cc1	6.3	55.7%	
CCOC(=O)C1=C(C)NC(C)=C(C(=O)OCC)C1c1c(F)cccc1Cl	6.44	100%	
COC(=O)C1=C(C)NC(C)=C(C(=O)OC)C1c1ccc(C(C)(C)C)cc1	5.52	20.9%	
COCCOC(=O)C1=C(C)NC(C)=C(C(=O)OCCOC)C1c1ccc(-c2cccc(Cl)c2Cl)o1	5.7	44.9%	
CCN(CC)c1ccc(C2C(C(=O)OC)=C(C)NC(C)=C2C(=O)OC)cc1	5.92	7.1%	
C=CCOC(=O)C1=C(C)NC(C)=C(C(=O)OCC=C)C1c1ccc(Cl)cc1Cl	6.4	81%	
COC(=O)C1=C(C)NC(C)=C(C(=O)OC)C1c1ccccc1	5.77	70.5%	

Structure (SMILES)	pEC50 for potentiation of CFTR deltaF508 (activation potency) [1]	inhibition at 1 µM [2]	Activity [3]
C=CCOC(=O)C1=C(C)NC(SC)=C(C#N)C1c1ccc(Cl)cc1 (configuration not stated)	6.26	36.7%	
CCCCOc1ccc(C2C(C(=O)OCC)=C(C)NC(C)=C2C(=O)OCC)cc1	5.52	9.6%	
COC(=O)C1=C(C)NC(C)=C(C(=O)OC)C1c1cccc(F)c1	6.21	91.9%	
CCOC(=O)C1=C(C)NC(SC)=C(C#N)C1c1ccccc1 (configuration not stated)	5.3	23.4%	
C=CCOC(=O)C1=C(C)NC(C)=C(C(=O)OCC=C)C1c1ccc(N(C)C)cc1	5.82	23.9%	
C=CCOC(=O)C1=C(C)NC(C)=C(C(=O)OCC=C)C1c1ccc(C(=O)OC)cc1	5.52	7.8%	
C=CCOC(=O)C1=C(C)NC(C)=C(C(=O)OCC=C)C1c1ccccc1Cl	6.74	100%	
C=CCOC(=O)C1=C(C)NC(C)=C(C(=O)OCC=C)C1c1cccc(Cl)c1	6.82	100%	
CCOC(=O)C1=C(C)NC(C)=C(C(=O)OCC)C1c1ccc2c(c1)OCO2	5.77	38.2%	
CC1=C(C(=O)OC(C)C)C(c2ccc(C)cc2)C(C(=O)OC(C)C)=C(C)N1	6.27	47%	
COC(=O)C1=C(C)NC(C)=C(C(=O)OC)C1c1ccc(-c2ccc(Cl)c(Cl)c2)o1	5.51	8.3%	
COC(=O)C1=C(C)NC(C)=C(C(=O)OC)C1c1ccc(I)cc1	6.34	12.3%	
COC(=O)C1=C(C)NC(C)=C(C(=O)OC)C1c1ccc(-c2cccc(Cl)c2Cl)o1	5.43	10.3%	
C=CCOC(=O)C1=C(C)NC(C)=C(C(=O)OCC=C)C1c1ccc(OC)cc1	6.3	37.2%	
C=CCOC(=O)C1=C(C)NC(C)=C(C(=O)OCC=C)C1c1ccc(I)cc1	5.77	37.5%	
COC(=O)C1=C(C)NC(C)=C(C(=O)OC)C1c1ccc(OCc2ccccc2)cc1	5.46	22.5%	
COC(=O)C1=C(C)NC(C)=C(C(=O)OCCCO[N+](=O)[O-])C1c1cccc([N+](=O)[O-])c1 (configuration not stated)	5.88		< 0.5%
CC1=C(C(=O)OCCCO[N+](=O)[O-])C(c2cccc([N+](=O)[O-])c2)C([N+](=O)[O-])=C(C)N1 (racemic)	5.07		< 0.5%
